The text below walks through data of US6906095B2, “Indolylalkylidenehydrazine-carboximidamide derivatives as 5-hydroxytryptamine-6 ligands” (Wyeth, priority 2002, dated 2005).

The target in the test is T1, human cloned 5-HT6 receptors (Homo sapiens, UniProt P50406).
T1 construct: expressed in transfected cells; host or cells: Hela cells
The test can be described thus: 5-HT6 binding affinity, [3H]-LSD displacement in membranes of Hela cells. Conditions: for inhibition at 0.1 µM: test compound dose 100 nM; for inhibition at 0.01 µM: test compound dose 10 nM. As to the method: The affinity of test compounds for the serotonin 5-HT6 receptor is evaluated in the following manner. Cultured Hela cells expressing human cloned 5-HT6 receptors are harvested and centrifuged at low speed (1,000×g) for 10.0 min to remove the culture media. The harvested cells are suspended in half volume of fresh physiological phosphate buffered saline solution and recentrifuged at the same speed. This operation is repeated. The collected cells are then homogenized in ten volumes of 50 mM Tris.HCl (pH 7.4) and 0.5 mM EDTA. The homogenate is centrifuged at 40,000×g for 30.0 min and the precipitate is collected. The obtained pellet is resuspended in 10 volumes of Tris.HCl buffer and recentrifuged at the same speed. The final pellet is suspended in a small volume of Tris.HCl buffer and the tissue protein content is determined in aliquots of 10-25 μl volumes. Bovine Serum Albumin is used as the standard in the protein determination according to the method described in Lowry et al., J. Biol. Chem., 193:265 (1951). The volume of the suspended cell membranes is adjusted to give a tissue protein concentration of 1.0 mg/ml of suspension. The prepared membrane suspension (10 times concentrated) is aliquoted in 1.0 ml volumes and stored at −70° C. until used in subsequent binding experiments.
The reaction is allowed to proceed in the dark for 120 min at room temperature, at which time, the bound ligand-receptor complex is filtered off on a 96 well unifilter with a Packard Filtermate® 196 Harvester. The bound complex caught on the filter disk is allowed to air dry and the radioactivity is measured in a Packard TopCount® equipped with six photomultiplier detectors, after the addition of 40.0 μl Microscint®-20 scintillant to each shallow well. The unifilter plate is heat-sealed and counted in a PackardTopCount® with a tritium efficiency of 31.0%.
Specific binding to the 5-HT6 receptor is defined as the total radioactivity bound less the amount bound in the presence of 10.0 μM unlabeled methiothepin. Binding in the presence of varying concentrations of test compound is expressed as a percentage of specific binding in the absence of test compound. The results are plotted as logit % bound versus log concentration of test compound. Nonlinear regression analysis of data points with a computer assisted program Prism® yields both the IC50 and the Ki values of test compounds with 95% confidence limits.
The amount of displacement by the test compound is given in percent (%) inhibition and is derived from the following equation: [formula] where B0 is the amount of CPM bound in the presence of the testing agent. NSB represents the CPM bound in the presence of a saturating concentration of a displacer and TB represents the total amount of CPM bound at zero (0) concentration of test compound.
Alternatively, a linear regression line of decline of data points is plotted, from which the IC50 value can be read off and the Ki value determined by solving the following equation: [formula] where L is the concentration of the radioactive ligand used and KD is the dissociation constant of the ligand for the receptor, both expressed in nM.

The mark [1] stands for this setting: test compound dose 1000 nM, [3H]-LSD 3.0 nM, read-out: % Inhibition.

Read-outs that look alike come from different tables or passages of the source.

T1 sequence (P50406 whole entry): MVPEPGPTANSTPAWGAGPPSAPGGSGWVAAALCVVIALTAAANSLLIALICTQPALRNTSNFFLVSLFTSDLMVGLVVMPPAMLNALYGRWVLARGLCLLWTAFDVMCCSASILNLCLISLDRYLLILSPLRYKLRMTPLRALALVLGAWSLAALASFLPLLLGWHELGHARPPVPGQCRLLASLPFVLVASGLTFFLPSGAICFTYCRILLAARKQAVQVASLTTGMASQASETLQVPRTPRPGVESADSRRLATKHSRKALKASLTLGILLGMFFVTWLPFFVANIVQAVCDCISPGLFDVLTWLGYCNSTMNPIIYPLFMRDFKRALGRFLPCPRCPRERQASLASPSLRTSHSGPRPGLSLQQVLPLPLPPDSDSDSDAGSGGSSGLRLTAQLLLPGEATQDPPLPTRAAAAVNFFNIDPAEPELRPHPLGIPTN

As a reminder, the inhibition is the relative decrease from the control value, in per cent. The compound `CC(=NNC(=N)N)c1cn(S(=O)(=O)c2cccc3ccccc23)c2ccccc12` [Example 50, 2-{1-[1-(1-naphthylsulfonyl)-1H-indol-3-yl]ethylidene}hydrazinecarboximidamide] gave an inhibition at 0.1 µM ([3H]-LSD 3.0 nM) of 63.5%.
In the case of `COc1ccc(S(=O)(=O)n2cc(C(=NNC(=N)N)C3CC3)c3ccccc32)cc1` [Example 63, 2-(cyclopropyl{1-[(4-methoxyphenyl)sulfonyl]-1H-indol-3-yl}methylidene)hydrazinecarboximidamide], where the note is “[3H]-LSD 3.0 nM”, the inhibition at 0.1 µM came out at 58.9%.
In turn, `CC(=NNC(=N)N)c1cn(S(=O)(=O)c2sc3ccc(Cl)cc3c2C)c2ccccc12` [Example 35, 2-(1-{1-[(5-chloro-3-methyl-1-benzothien-2-yl)sulfonyl]-1H-indol-3-yl}ethylidene)hydrazinecarboximidamide] had an inhibition at 0.1 µM ([3H]-LSD 3.0 nM) of 39.1%.
On the same count and under the same terms, next, `CC(=NNC(=N)N)c1cn(S(=O)(=O)c2cccc3c(N(C)C)cccc23)c2ccccc12` [Example 38, 2-[1-(1-{[5-(dimethylamino)-1-naphthyl]sulfonyl}-1H-indol-3-yl)ethylidene]hydrazinecarboximidamide]: 25.8%; `CC(=NNC(=N)NCc1ccccn1)c1cn(S(=O)(=O)c2ccccc2)c2ccccc12` [Example 126, 2-{1-[1-(phenylsulfonyl)-1H-indol-3-yl]ethylidene}-N-(pyridin-2-ylmethyl)hydrazinecarboximidamide]: 37.7%.
`CC(=NNC(=N)N)c1cn(S(=O)(=O)c2ccccc2)c2ccc(C#N)cc12` [Example 16, 2-{1-[5-cyano-1-(phenylsulfonyl)-1H-indol-3-yl]ethylidene}hydrazinecarboximidamide] came in with an inhibition at 0.01 µM ([3H]-LSD 3.0 nM) of 40.6%.
As for `CCCCC(=NNC(=N)N)c1cn(S(=O)(=O)c2ccc(OC)cc2)c2ccccc12` [Example 62, 2-(1-{1-[(4-methoxyphenyl)sulfonyl]-1H-indol-3-yl}pentylidene)hydrazinecarboximidamide], the inhibition at 1 µM under setting [1] came to 68.3%.
Consider `CCCCS(=O)(=O)n1cc(C(=NNC(=N)N)C2CC2)c2cc(Cl)ccc21` [Example 77, 2-[[1-(butylsulfonyl)-5-chloro-1H-indol-3-yl](cyclopropyl)methylidene]hydrazinecarboximidamide], for which testing at 0.01 µM ([3H]-LSD 3.0 nM) gave an inhibition of 44.3%.
The term Ki denotes a dissociation constant, usually derived from enzyme kinetics or from competition with a known ligand. The low end stands for higher affinity, the high end for lower affinity. Regarding `CC(=NNC(=N)N)c1cn(S(C)(=O)=O)c2cc(F)ccc12` [Example 100, 2-{1-[6-fluoro-1-(methylsulfonyl)-1H-indol-3-yl]ethylidene}hydrazinecarboximidamide], affinity was put at a Ki of 18 nM. Testing at 0.1 µM ([3H]-LSD 3.0 nM) gave an inhibition of 83.8%.
With `CC(C)CC(=NNC(=N)N)c1cn(S(=O)(=O)c2ccccc2)c2ccccc12` [Example 7, 2-{3-methyl-1-[1-(phenylsulfonyl)-1H-indol-3-yl]butylidene}hydrazinecarboximidamide], the affinity corresponds to a Ki of 12 nM. Also, the inhibition at 1 µM under setting [1] came out at 98.5%.
In turn, `CC(=NNC(=N)N)c1cn(S(=O)(=O)c2ccccc2[N+](=O)[O-])c2ccccc12` [Example 51, 2-(1-{1-[(2-nitrophenyl)sulfonyl]-1H-indol-3-yl}ethylidene)hydrazinecarboximidamide] had an inhibition at 0.1 µM ([3H]-LSD 3.0 nM) of 70.1%.
On to `CC(=NNC(=N)N)c1c(-c2ccc3ccccc3c2)n(S(=O)(=O)c2ccccc2)c2ccccc12` [Example 14, 2-{1-[2-(2-naphthyl)-1-(phenylsulfonyl)-1H-indol-3-yl]ethylidene}hydrazinecarboximidamide], for which the inhibition at 1 µM under setting [1] was 85.4%.
Turning to `CCCCC(=NNC(=N)N)c1cn(S(C)(=O)=O)c2cc(F)ccc12` [Example 101, 2-{1-[6-fluoro-1-(methylsulfonyl)-1H-indol-3-yl]pentylidene}hydrazinecarboximidamide], the inhibition at 1 µM under setting [1] was determined as 77.4%.
For the compound `CC(=NNC(=N)N)c1cn(C(=O)Nc2ccccc2)c2ccccc12` [Example 129, 3-(1-{2-[amino(imino)methyl]hydrazono}ethyl)-N-phenyl-1H-indole-1-carboxamide], at 0.1 µM the inhibition ([3H]-LSD 3.0 nM) was 23.4%.
For the compound `CC(=NNC(=N)N)c1cn(S(=O)(=O)c2ccccc2)c2ccc(F)cc12` [Example 19, 2-{1-[5-fluoro-1-(phenylsulfonyl)-1H-indol-3-yl]ethylidene}hydrazinecarboximidamide], testing at 0.1 µM ([3H]-LSD 3.0 nM) gave an inhibition of 82.4%.
Compound `N=C(N)NN=C(c1cn(S(=O)(=O)c2ccccc2)c2ccccc12)C1CCCCC1` [Example 2, 2-{Cyclohexyl[1-(phenylsulfonyl)-1H-indol-3-yl]methylidene}-hydrazinecarboximidamide] gave an inhibition at 1 µM of 69.2%.
The compound `CC(=NNC(=N)N)c1cn(S(=O)(=O)c2cc(Cl)c(Cl)s2)c2ccccc12` [Example 42, 2-(1-{1-[(4,5-dichlorothien-2-yl)sulfonyl]-1H-indol-3-yl}ethylidene)hydrazinecarboximidamide] returned an inhibition at 0.1 µM ([3H]-LSD 3.0 nM) of 46.3%.
In turn, `COc1ccc(S(=O)(=O)n2cc(C(C)=NNC(=N)N)c3ccccc32)cc1OC` [Example 69, 2-(1-{1-[(3,4-dimethoxyphenyl)sulfonyl]-1H-indol-3-yl}ethylidene)hydrazinecarboximidamide] yielded a Ki of 12 nM. For the same compound, testing at 0.1 µM ([3H]-LSD 3.0 nM) gave an inhibition of 72.4%.
`COc1ccc2c(c1)c(C=NNC(=N)N)cn2S(=O)(=O)c1ccccc1` [Example 20, 2-{[5-methoxy-1-(phenylsulfonyl)-1H-indol-3-yl]methylidene}hydrazinecarboximidamide] showed an inhibition at 0.1 µM ([3H]-LSD 3.0 nM) of 76.3%.
In the case of `COc1ccc(S(=O)(=O)n2c(-c3ccc(Cl)cc3)c(C(C)=NNC(=N)N)c3ccccc32)cc1OC` [Example 98, 2-(1-{2-(4-chlorophenyl)-1-[(3,4-dimethoxyphenyl)sulfonyl]-1H-indol-3-yl}ethylidene)hydrazinecarboximidamide], under setting [1], the inhibition at 1 µM turned out to be 53.3%.
As for `COc1ccc(S(=O)(=O)n2cc(C(C)=NNC(=N)N)c3cc(Cl)ccc32)cc1` [Example 78, 2-(1-{5-chloro-1-[(4-methoxyphenyl)sulfonyl]-1H-indol-3-yl}ethylidene)hydrazinecarboximidamide], the inhibition at 1 µM under setting [1] came to 85.5%.
The compound `CC(=NNC(=N)N)c1cn(S(=O)(=O)c2cn(C)cn2)c2ccccc12` [Example 47, 2-(1-{1-[(1-methyl-1H-imidazol-4-yl)sulfonyl]-1H-indol-3-yl}ethylidene)hydrazinecarboximidamide] had a Ki of 46 nM. For the setting “[3H]-LSD 3.0 nM”, this compound showed an inhibition at 0.1 µM of 81.1%.
For the compound `N=C(N)NN=C(c1cn(S(=O)(=O)c2ccc3ccccc3c2)c2ccc(Cl)cc12)C1CC1` [Example 83, 2-[[5-chloro-1-(2-naphthylsulfonyl)-1H-indol-3-yl](cyclopropyl)methylidene]hydrazinecarboximidamide], under setting [1], the inhibition at 1 µM was determined as 89.3%.
Take `CC(=NNC(=N)N)c1cn(S(=O)(=O)c2cc(Br)c(Br)s2)c2ccccc12` [Example 39, 2-(1-{1-[(4,5-dibromothien-2-yl)sulfonyl]-1H-indol-3-yl}ethylidene)hydrazinecarboximidamide]: the inhibition at 0.1 µM ([3H]-LSD 3.0 nM) was determined as 62.1%.
`CC(=NNC(=N)N)c1cn(S(=O)(=O)c2sc(N)nc2C)c2ccccc12` [Example 22, 2-(1-{1-[(2-amino-4-methyl-1,3-thiazol-5-yl)sulfonyl]-1H-indol-3-yl}ethylidene)hydrazinecarboximidamide] displayed a Ki of 8 nM. The inhibition at 0.1 µM ([3H]-LSD 3.0 nM) worked out at 90.5%.
